Assay results from patent publication US20160237158A1, “Methods and Compositions for Targeting Tumor Microenvironment and for preventing Metastasis” (INSTITUT NATIONAL DE LA SANTÉ ET DA LA RECHERCHE MÉDICALE …, priority 2013, published 2016).

Experiments:
fibroblasts = test: Fibroblast contractility (collagen lattices) and pro-invasive activity (organotypic invasion) induced by human tumour cell conditioned media; type: cell-based; design: key to Fibroblasts contractile & pro-invasive phenotype: +: induction; −: no induction
Procedure: (§1) In this assay, hDF or CAFs were cultured during one week in serum-free medium (with either vehicle or cytokines) or CM before embedding in matrix gel. 5×10^5 fibroblasts were embedded in a 1 ml mixture of collagen I and Matrigel18. After the gel was set at 37° C. for 1 h, 5×10^5 SCC12 were plated on top of the gel in complete media. The next day, the gel was lifted onto individual collagen coated nylon discs resting on metal bridges and fed from underneath with daily changes of complete media (with either vehicle or inhibitors), allowing the epithelial layer to grow at an air-liquid interface.
(§2) After 5 days, cultures were fixed (4% paraformaldehyde+0.25% glutaraldehyde in PBS) and processed for haematoxylin and eosin (H&E) staining by standard methods. Invasion assay was measuring the total area of SCC cells and the area of non-invading SCC cells using imageJ software (http://rsbweb.nih.gov/ij/). The value of invasion index shown is the average 1−(non-invading area/total area) of at least ten fields from three or more independent experiments. Error bars are the standard deviation.
(§3) 2.5×10^4 Fibroblasts were embedded in 100 μl of matrix gel (the Collagen-Matrigel mixture used for organotypic invasion assays) and plated into wells of a 96 well plate^57. After 1 h at 37° C., the matrices were overlaid with 100 μl serum-free medium (with either vehicle, cytokines or inhibitors) or CM. Every 2 days, medium was changed and at day 6 the gels were photographed and the respective diameters of the well and gel were measured using ImageJ. The percentage contraction was calculated using the formula 100*(well diameter−gel diameter)/well diameter.
Neutralizing antibody against LIF (AB-250-NA, R&D, Minneapolis, Minn.), IL-6 R (AB-227-NA, R&D) or TGF beta-1,2,3 (MAB1835, R&D) were used at 10 μg/ml otherwise stated. Neutralizing antibody were incubated one hour with conditioned media before being used for matrix remodelling assay and fibroblasts stimulation to neutralize the biological activity of selected cytokines.
Cancer Cells were grown to confluence, washed twice with PBS and then incubated in serum-free medium at 37° C. After 48 hours, conditioned medium was collected, centrifugated at 5000 g for 5 minutes to remove cell debris and the supernatant stored at −80° C. For immunobloting analysis, fibroblasts were stimulated with cancer cells conditioned media for 5 min, otherwise stated, and lysed as described in the immunbloting section. To analyse LIF secretion upon TGFβ-1 stimulation, fibroblasts were stimulated with 2 ng/ml TGF beta-1 for 1, 4, 24 or 48 h in serum-free medium and conditioned media was prepared as below for ELISA analysis.

hDF and hCAF = test: Matrix remodelling (collagen gel contraction) assay; type: cell-based, human; conditions: collagen rich lattices
Procedure: as §3

SCC12 cells = test: Organotypic invasion assay; type: cell-based, human
Procedure: as §1, §2

mouse dermal fibroblasts = test: TGFβ1-stimulated mouse dermal fibroblasts: STAT3 phosphorylation and collagen gel contraction; type: cell-based
Procedure: as §3
For immunoblotting analysis, cells were lysed on ice in lysis buffer (25 mM Tris (pH 6.8), 2% Sodium dodecyl sulfate (SDS), 5% glycerol, 1% beta-mercaptoethanol, 0.01% bromophenol blue). Equal amounts of protein from each sample were loaded on sodium dodecyl sulfate-polyacrylamide gel electrophoresis, separated, and transferred onto nitrocellulose. The immunoblots were blocked by incubation in 5% bovine serum albumin, 10 mM Tris-HCl (ph7.5), 500 mM NaCl, 0.1% Tween 20 for 30 min at room temperature, probed with specific antibodies and then with secondary antibodies using common classical methods. Immunodetection was performed using chemiluminescent HRP subtrate (#WBKLS0500, Millipore, Billerica, Mass.).

hDF = test: Collagen fibre assembly in 3D-organotypic cultures (Sirius Red); type: cell-based, human; conditions: hDF stimulated by either TGFβ1 or LIF
Procedure: After embedding in paraffin, tissue sections from organotypic culture, skin from human breast and foreskin, and human skin carcinomas were prepared on slides using standard methods. Collagen assembly was evaluated by Sirius Red staining. Briefly, sections were first incubated with Weigert's iron hematoxylin (#C0231, Diapath, Martinengo, Italy) for 8 minutes and washed in distilled water for 10 minutes. Sections were next incubated with 1% Sirius Red in saturated picric acid for 1 hour. The slides were then washed twice with 0.5% acetic acid in distilled H2O, dehydrated and mounted using classical procedures. Sections were analysed using polarized light imaging and confocal laser microscopy with a LSM 5 EXCITER confocal microscope (Carl Zeiss, Germany). Collagen fibres thickness and length were quantified using ImageJ software.

SMAD2 = SMAD2 phosphorylation in fibroblasts (western blot); type: cell-based, human; conditions: TGFβ1- or LIF-stimulated fibroblasts
Excerpt: For western blot analysis, antibodies against STAT3 (#9134), pY705-STAT3 (#9145), SMAD2 (#3122), pSer465/467-SMAD2 (#3108), pY1022/1023-JAK1 (#3331), MLC2 (#3672), pThr18/19-MLC2 (#3674) were purchased from Cell Signaling (Cell Signaling Technology, Beverly Mass.), α-tubulin from sigma (T4026, Sigma, Saint Louis, Mo.); JAK1 from Biolegend (#604402, Biolegend, San Diego, Calif.), GP-130 (#sc-655) and RhoA (#sc-418, Santa Cruz Biotechnology, Santa Cruz, Calif.), and alpha-smooth muscle actin (α-SMA) from Abcam (#Ab5694, Abcam, Cambridge, Mass.). For immunofluorescence staining, antibodies against α-SMA and fibronectin were purchased from Sigma (#A2547 and F3648 respectively, Sigma, Saint Louis, Mo.). Chemical inhibitors used: Pyridone 6 (#42009, Calbiochem, Los Angeles, Calif.) was used at […], SB431542 (#1614, Tocris bioscience, Ellisville, Mo.) at 10 μM, Y27632 (#1254, Tocris bioscience, Ellisville, Mo.) and Actinomycin D (#856258, Sigma, Saint Louis, USA) at 5 μg/ml.
For immunoblotting analysis, cells were lysed on ice in lysis buffer (25 mM Tris (pH 6.8), 2% Sodium dodecyl sulfate (SDS), 5% glycerol, 1% beta-mercaptoethanol, 0.01% bromophenol blue). Equal amounts of protein from each sample were loaded on sodium dodecyl sulfate-polyacrylamide gel electrophoresis, separated, and transferred onto nitrocellulose. […]

## N#CCC(C1CCCC1)n1cc(-c2ncnc3[nH]ccc23)cn1 (stereo not drawn) [Ruxolitinib, 3-Cyclopentyl-3-[4-(7H-pyrrolo[2,3-d]pyrimidin-4-yl)-1H-pyrazol-1-yl]propanenitrile]
fibroblasts; A375M2 CM (h. melanoma), antibodies 10 μg·ml−1, αLIF (50)
  Fibroblasts contractile & pro-invasive phenotype: −
fibroblasts; A375P CM (h. melanoma), antibodies 10 μg·ml−1
  Fibroblasts contractile & pro-invasive phenotype: −
fibroblasts; A549 CM (h. lung carcinoma), antibodies 10 μg·ml−1
  Fibroblasts contractile & pro-invasive phenotype: −
fibroblasts; CAL27 CM (human OSCC), antibodies 10 μg·ml−1, αLIF (50)
  Fibroblasts contractile & pro-invasive phenotype: −
fibroblasts; CAL33 CM (human OSCC), antibodies 10 μg·ml−1
  Fibroblasts contractile & pro-invasive phenotype: −
fibroblasts; CAL33_LIF CM (h. engineered cell line), antibodies 10 μg·ml−1, αLIF (50)
  Fibroblasts contractile & pro-invasive phenotype: −
fibroblasts; CAL33_mock CM (h. engineered cell line), antibodies 10 μg·ml−1
  Fibroblasts contractile & pro-invasive phenotype: −
fibroblasts; CAL60 CM (human OSCC), antibodies 10 μg·ml−1
  Fibroblasts contractile & pro-invasive phenotype: −
fibroblasts; CAL166 CM (human OSCC), antibodies 10 μg·ml−1
  Fibroblasts contractile & pro-invasive phenotype: −
fibroblasts; Detroit562 CM (human OSCC), antibodies 10 μg·ml−1
  Fibroblasts contractile & pro-invasive phenotype: −
fibroblasts; LS174 CM (h. colon carcinoma), antibodies 10 μg·ml−1
  Fibroblasts contractile & pro-invasive phenotype: −
fibroblasts; MDA-MB-231 CM (breast carcinoma), antibodies 10 μg·ml−1
  Fibroblasts contractile & pro-invasive phenotype: −
fibroblasts; MDA-MB-468 CM (breast carcinoma), antibodies 10 μg·ml−1
  Fibroblasts contractile & pro-invasive phenotype: −
fibroblasts; Mel501 CM (h. melanoma), antibodies 10 μg·ml−1
  Fibroblasts contractile & pro-invasive phenotype: −
fibroblasts; Mel1205 CM (h. melanoma), antibodies 10 μg·ml−1
  Fibroblasts contractile & pro-invasive phenotype: −
fibroblasts; SCC12 CM (human OSCC), antibodies 10 μg·ml−1
  Fibroblasts contractile & pro-invasive phenotype: −
fibroblasts; SCC13 CM (human OSCC), antibodies 10 μg·ml−1
  Fibroblasts contractile & pro-invasive phenotype: −
fibroblasts; SCC25 CM (human OSCC), antibodies 10 μg·ml−1
  Fibroblasts contractile & pro-invasive phenotype: −
fibroblasts; Sbcl2 CM (h. melanoma), antibodies 10 μg·ml−1
  Fibroblasts contractile & pro-invasive phenotype: −
fibroblasts; WM35 CM (h. melanoma), antibodies 10 μg·ml−1
  Fibroblasts contractile & pro-invasive phenotype: −
fibroblasts; WM278 CM (h. melanoma), antibodies 10 μg·ml−1
  Fibroblasts contractile & pro-invasive phenotype: −
fibroblasts; WM793 CM (h. melanoma), antibodies 10 μg·ml−1
  Fibroblasts contractile & pro-invasive phenotype: −
fibroblasts; hPK CM, antibodies 10 μg·ml−1
  Fibroblasts contractile & pro-invasive phenotype: −
hDF and hCAF
  TGFβ1 and LIF-dependent activation of hDF contractility: completely inhibited
SCC12 cells; hCAF
  track formation and SCC12 cell invasion promoted by hCAF: prevented
SCC12 cells; hDF, TGFβ1 and LIF stimulation
  pro-invasive hDF activation induced upon TGFβ1 and LIF stimulation: abrogated
Mouse dermal fibroblasts
  STAT3 phosphorylation: complete abrogation
  matrix remodelling: complete abrogation
hDF
  capacity to assembly polarized collagen fibres: inhibited
SMAD2
  effect on SMAD2: no effect
